{
  "source": "patent US8597660B2",
  "about": "“Therapeutic approach to neurodegenerative disorders using a TFP5-peptide” (The United States of America, as represented by the …, priority 2010, dated 2013)",
  "key": {"[1]": {"test_system": "tau phosphorylation", "assay": "Aβ-induced tau phosphorylation in cortical neurons, Western blot", "type": "cell-based, rat", "conditions": "Aβ 6 h", "protocol": "Primary cultures of rat cortical neurons were prepared from E-18 rat fetuses as described previously (Zheng et al., J Biol Chem 278(26), 24026-24032, 2003). After 7 days, cells were infected independently or co-infected with empty vector (EV), the constructs of P5, P25, P35, wild-type Cdk5 and dominant negative Cdk5 (changing Lys33 to Thr33) using the Adenoviral vector (pAdTrack-CMV) packaging system as described above. […] The cells were fixed for immunocytochemistry analyses (ICC) or lysed with lysis buffer for immunoprecipitation and Western blot analyses. Cortical neuron cultures were prepared and plated on the cover slips as described. Human embryo kidney cells (HEK293) were grown as described previously (Zheng et al., Eur J Biochem 269(18), 4427-4434, 2002). In these studies HEK293 cells on day 1, or neurons on day 5, were transfected with or without Myc-P5-GFP using Lipofectamine 2000 following the manufacturer's instructions.\nWestern blot analysis was performed as previously described (Zheng et al., Eur J Biochem 269(18), 4427-4434, 2002). In brief, an equal amount of total protein (20 μg/lane) was resolved on a 4-20% SDS polyacrylamide gel and blotted onto a polyvinylidene difluoride membrane. This membrane was incubated in blocking buffer containing 20 mM Tris-HCl (pH 7.4), 150 mM NaCl, and 0.1% (vol/vol) Tween 20 (TTBS) plus 5% dry milk (w/v) for 1 hour at room temperature followed by incubation overnight at 4° C. in primary antibodies (see antibodies). The membranes were then washed four times in TTBS (5 minutes/each) followed by incubation in secondary antibody (goat-antimouse or goat anti-rabbit IgG (H+L)-horseradish peroxidase (HRP) conjugate at a dilution of 1:3000) for 1 hour at room temperature. Western blots were analyzed using the Amersham Enhanced Chemiluminescence (ECL) kit following the manufacturer's instructions (GE Healthcare, Piscataway, N.J.).\nAmyloid plaques and neurofibrillary tangles, pathological hallmarks of several neurodegenerative disorders, are linked to deregulated Cdk5 and neuronal death. According to one model, β amyloid, being toxic, may evoke abnormal calcium influx into neurons which activates calpains. […] Hyperactivation of Cdk5, leads to the aberrant phosphorylation of tau and neurofilaments in a number of neurodegenerative diseases including AD and ALS. For example, primary cortical neurons, when treated with Aβ1-42 are induced to form Cdk5/P25 complexes, hyperactive Cdk5 activity, hyperphosphorylation of tau, and neuronal apoptosis. To determine whether P5 will inhibit endogenous tau phosphorylation induced by Aβ treatment in cortical neurons, 7 day old cortical neurons, infected with empty vector (EV) or with P5 were treated with Aβ for 6 hours, lysed and prepared for Cdk5 immunoprecipitation and kinase assay. Aβ treatment causes an approximate 3-fold increase in endogenous Cdk5 activity as visualized by histone H1 phosphorylation (FIG. 4A, panel 5, lane 2; FIG. 4B).\n; FIG. 4D). […] Tau antibodies p-Ser404, PHF antibody AT180 (recognizes p-Thr231) and p-Ser422 antibodies were used to observe whether P5 affects other tau phosphorylation residues (FIGS. 4E, 4F). […]. Tau 5 recognizes total tau, nonphosphorylated as well as phosphorylated."}, "[2]": {"molecular_target": "T1, Cdk5/P25 (Rattus norvegicus, UniProt Q03114)", "T1 construct": "endogenous in cells; host or cells: E-18 rat cortical neurons treated with 10 uM Abeta1-42", "T1 sequence (Q03114 whole entry)": "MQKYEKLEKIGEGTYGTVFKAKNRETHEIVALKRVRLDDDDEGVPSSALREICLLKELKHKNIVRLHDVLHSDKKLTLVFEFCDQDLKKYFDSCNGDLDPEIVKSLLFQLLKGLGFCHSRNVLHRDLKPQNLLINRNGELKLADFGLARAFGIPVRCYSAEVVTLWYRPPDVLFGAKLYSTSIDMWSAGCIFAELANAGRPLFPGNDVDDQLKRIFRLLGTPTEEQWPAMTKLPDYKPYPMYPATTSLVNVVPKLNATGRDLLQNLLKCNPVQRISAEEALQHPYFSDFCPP", "assay": "In vitro kinase assay on Cdk5 immunoprecipitates of Aβ1-42-treated cortical neurons with added P5 peptide", "type": "biochemical", "conditions": "P5 0.45 μM or above", "protocol": "Kinase assays were performed as previously described (Veeranna, et al., J Neurosci 18(11), 4008-4021, 1998). Briefly, 7 days in culture (7 DIC) primary rat cortical neurons were infected with P25, P35, Cdk5 wild-type, dominant negative-Cdk5 and P5 using the lentiviral gene delivery as described earlier. Cdk5 was immunoprecipitated using the polyclonal C8 antibody overnight at 4° C. and immunoglobulin isolated using Protein A sepharose beads for 2 hours at 4° C. Immunoprecipitates were washed three times with lysis buffer and then once with 1× kinase buffer containing 20 mM Tris-Cl pH 7.4, 1 mM EDTA, 1 mM EGTA, 10 mM MgCl2, 10 mM sodium fluoride and 1 mM sodium orthovanadate. Endogenous Cdks were immunoprecipitated from HEK 293 cells using their respective antibodies and treated as above. Kinase assays were performed in the same buffer containing 1 mM DTT, 0.1 mM ATP and 0.185 MBq [γ-32P] ATP with 20 μg of histone H1 as the substrate. […]\nTo determine the minimum dose at which the P5 peptide is an efficient inhibitor of Cdk5/P25 hyperactivity under physiological conditions, cortical neurons were treated with Aβ1-42 to induce the expression of P25 and Cdk5 hyperactivation, Cdk5 immunoprecipitates were prepared and the effect of different concentrations of P5 was evaluated (FIG. 6)."}, "[3]": {"test_system": "Cdc2, Cdk2, Cdk4, and Cdk6", "assay": "Kinase assay of cell cycle Cdk immunoprecipitates from HEK293 cells infected with P5-myc or treated with roscovitine", "type": "cell-based, human", "conditions": "HEK293 cells infected with P5-myc or treated with 20 μM roscovitine", "protocol": "Briefly, 7 days in culture (7 DIC) primary rat cortical neurons were infected with P25, P35, Cdk5 wild-type, dominant negative-Cdk5 and P5 using the lentiviral gene delivery as described earlier. Cdk5 was immunoprecipitated using the polyclonal C8 antibody overnight at 4° C. and immunoglobulin isolated using Protein A sepharose beads for 2 hours at 4° C. Immunoprecipitates were washed three times with lysis buffer and then once with 1× kinase buffer containing 20 mM Tris-Cl pH 7.4, 1 mM EDTA, 1 mM EGTA, 10 mM MgCl2, 10 mM sodium fluoride and 1 mM sodium orthovanadate. Endogenous Cdks were immunoprecipitated from HEK 293 cells using their respective antibodies and treated as above. […] ATP with 20 μg of histone H1 as the substrate. Phosphorylation was performed in a final volume of […] incubated at 30° C. for 60 minutes, stopped by the addition of 10% SDS sample buffer and heating at 95° C. for 5 minutes. Samples were separated by SDS-PAGE, gels were stained with Coomassie, destained, dried and exposed to autoradiography. In pad assays, 25 μl aliquots of the incubation mixture were placed on a Whatman p80 paper square, washed and dried and placed in a scintillation vial for counting."}},
  "note": "Entries after “also recorded” stand apart in the source; their conditions may differ.",
  "data": [
    {"substance": "P5: 24 residue peptide derived from Cdk5 activator P35 (K254-A277 of SEQ ID NO: 16); Cdk5 inhibitory peptide (KEAFWDRCLSVINLMSSKMLQINA; listed as Homo sapiens)", "values": [
      {"measurement": "Aβ-induced tau phosphorylation at Ser404", "setting": "[1]; P5 infection", "value": "reduces phosphorylation at Thr 231 and Ser404; also recorded: significantly inhibits tau phosphorylation at S404 and T231"},
      {"measurement": "Aβ-induced tau phosphorylation at Thr231 (AT180)", "setting": "[1]; P5 infection", "value": "reduces phosphorylation at Thr 231 and Ser404; also recorded: significantly inhibits tau phosphorylation at S404 and T231"},
      {"measurement": "Aβ-induced tau phosphorylation at Ser422", "setting": "[1]; P5 infection or roscovitine", "value": "only a modest affect on Ser 422; also recorded: slight decrease of tau phosphorylation at the Ser422 site, is not significant"},
      {"measurement": "Aβ-induced tau phosphorylation detected by AT8 and p-Ser199/202 antibodies", "setting": "[1]; P5 infection or roscovitine", "value": "baseline levels of tau phosphorylation; also recorded: restoring it to basal levels"},
      {"measurement": "Aβ1-42-induced Cdk5 hyperactivity", "setting": "[2]", "value": "totally eliminated"},
      {"measurement": "Inhibition of endogenous cell cycle Cdk activity", "setting": "[3]", "value": "virtually no effect; also recorded: no inhibition in all cases; also recorded: unaffected by P5"}
    ]}
  ]
}
